The series can be described thus: Maximum solubility of CoQ10 in coconut oil. Type of series: physicochemical. As to conditions: in neobee (coconut oil).

Molecule `COC1=C(OC)C(=O)C(C/C=C(\C)CC/C=C(\C)CC/C=C(\C)CC/C=C(\C)CC/C=C(\C)CC/C=C(\C)CC/C=C(\C)CC/C=C(\C)CC/C=C(\C)CCC=C(C)C)=C(C)C1=O` [Emulsion Q10, 2-[(2E,6E,10E,14E,18E,22E,26E,30E,34E)-3,7,11,15,19,23,27,31,35,39-Decamethyltetraconta-2,6,10,14,18,22,26,30,34,38-decaenyl]-5,6-dimethoxy-3-methylcyclohexa-2,5-diene-1,4-dione] had a maximum solubility of 6%.

For the origin of these results see US11944704B2, “Coenzyme Q10 aerosol” (UNM Rainforest Innovations, priority 2015, dated 2024).
